Results published in BindingDB's records for doi:10.1016/j.bmcl.2012.05.087 (Actelion Pharmaceuticals, 2012).

Test: Antagonist activity at human CRTh2 receptor in human whole blood assessed as inhibition of PGD2-induced eosinophil shape change after 10 mins by flow cytometric analysis in presence of 50% human plasma

IC50 [nM] | SMILES
16 | COc1ccc(C(C)=O)cc1CSc1nc2ccccc2n1CC(=O)O
41 | CCCCNC(=O)c1ccc(OC)c(CSc2nc3cc(F)ccc3n2CC(=O)O)c1
51 | COc1ccc(C(=O)N2CCc3ccccc32)cc1CSc1nc2cc(F)ccc2n1CC(=O)O
